The values below come from patent US8673915B2, “P 2×4 receptor antagonist” (Nippon Chemiphar Co., Ltd., priority 2010, dated 2014).

Each structure is given as a SMILES string. Structures can show the parent of a compound that is named as a salt. Where two headings read alike, the source gives them in different places.

Test [1] addresses T1, P2X4 receptor (Homo sapiens, UniProt Q99571).
T1 sequence (Q99571 1-388): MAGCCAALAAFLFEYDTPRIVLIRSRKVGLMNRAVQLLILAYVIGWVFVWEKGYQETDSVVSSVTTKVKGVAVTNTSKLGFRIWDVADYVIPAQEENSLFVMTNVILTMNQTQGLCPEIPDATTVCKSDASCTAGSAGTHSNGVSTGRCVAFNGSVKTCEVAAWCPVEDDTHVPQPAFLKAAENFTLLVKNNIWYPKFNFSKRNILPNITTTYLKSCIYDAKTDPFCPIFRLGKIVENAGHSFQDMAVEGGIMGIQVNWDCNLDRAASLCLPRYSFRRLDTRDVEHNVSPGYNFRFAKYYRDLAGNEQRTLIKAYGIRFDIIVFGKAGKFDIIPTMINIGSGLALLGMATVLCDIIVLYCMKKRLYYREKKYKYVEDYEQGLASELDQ
The experiment in a line: Intracellular calcium assay (Fura-2 AM) of ATP-induced calcium influx in 1321N1 cells stably expressing human P2X4 receptors. It is filed as cell-based. Conditions: read-out: IC50 (P2X4 receptor antagonism). Here is the method: 1321N1 cells stably expressing human P2X4 receptors were plated in 96-well assay plate and cultured 24 hours at 37° C. in an atmosphere of 5% CO2 for intracellular calcium assay. Fura-2 AM calcium fluorescent indicator was used for the intracellular calcium assay. Fura-2 AM was dissolved in an assay buffer, and the solution was loaded onto cells. The obtained plate was used for fluorescent assay. Test compounds were treated to cells 15 minutes before the addition of ATP, and the response to intracellular calcium influx induced by addition of ATP was monitored by a micro plate reader. The fluorescence ratio of excitations wavelengths of 340 nm and 380 nm was used as the index of intracellular calcium change. The inhibition activities of the test compounds were calculated by comparison with the absence of the test compound (control).
P2X4 receptor antagonism of the compound of the present invention was measured as described below.
P2X4 receptor antagonism of the compound of the present invention was measured in the same manner as in Example 30.
A general note: A change in cytosolic calcium serves as a functional read-out for many receptors and channels.

The target in test [2] is T1, P2X4 receptor. Conditions: disclosed in Non-patent document 8; cited from earlier work.
The mark [3] stands for this setting: Table 26, Example 31, same manner as in Example 30.
Setting [4] is: Table 25, Example 30, 1321N1 cells expressing human P2X4, compounds added 15 minutes before ATP, Fura-2 340/380 nm ratio.

For orientation: IC50 means the concentration that inhibits the measured activity by half. Consider `O=c1[nH]c2c3c(ccc2n(-c2cccc(NS(=O)(=O)c4ccccc4)c2)c1=O)CCCC3` [Example 22, N-[3-(2,3-Dioxo-2,3,7,8,9,10-hexahydro-1H-benzo[f]quinoxalin-4-yl)phenyl]benzenesulfonamide], for which the 50% inhibitory concentration (IC50) in test [1] (setting [3]) turned out to be 0.8 µM.

`O=c1[nH]c2c3c(ccc2n(-c2cccc(NS(=O)(=O)c4cccs4)c2)c1=O)CCCC3` [Example 26, N-[3-(2,3-Dioxo-2,3,7,8,9,10-hexahydro-1H-benzo[f]quinoxalin-4-yl)phenyl]-2-thiophenesulfonamide]: in test [1] (setting [3]), the IC50 stood at 1.8 µM.

`O=c1[nH]c2c3c(ccc2n(-c2cccc(NS(=O)(=O)c4ccccc4[N+](=O)[O-])c2)c1=O)CCCC3` [Example 9, N-[3-(2,3-Dioxo-2,3,7,8,9,10-hexahydrobenzo[f]quinoxalin-4(1H)-yl)phenyl]-2-nitrobenzenesulfonamide]: the concentration for half-maximal inhibition (IC50) in test [1] (setting [4]) is 2.1 µM.

As to `O=c1[nH]c2c3c(ccc2n(-c2cccc(NS(=O)(=O)c4cccnc4)c2)c1=O)CCCC3` [Example 27, N-[3-(2,3-Dioxo-2,3,7,8,9,10-hexahydro-1H-benzo[f]quinoxalin-4-yl)phenyl]-3-pyridinesulfonamide hydrochloride], the IC50 in test [1] (setting [3]) came to 3 µM. Still for that read-out and setting: as for `Nc1cccc(-n2c(=O)c(=O)[nH]c3c4ccccc4ccc32)c1` [Example 13, 4-(3-Aminophenyl)-1,4-dihydrobenzo[f]quinoxaline-2,3-dione hydrochloride], the figure is 2.1 µM; as for `O=c1[nH]c2c3c(ccc2n(-c2cccc(NS(=O)(=O)c4cccc5ccccc45)c2)c1=O)CCCC3` [Example 24, N-[3-(2,3-Dioxo-2,3,7,8,9,10-hexahydro-1H-benzo[f]quinoxalin-4-yl)phenyl]-1-naphthalenesulfonamide], 2.6 µM.

Take `Nc1cccc(-n2c(=O)c(=O)[nH]c3c4c(ccc32)CCCC4)c1` [Example 7, 4-(3-Aminophenyl)-1,4,7,8,9,10-hexahydrobenzo[f]quinoxaline-2,3-dione hydrochloride]: the concentration for half-maximal inhibition (IC50) in test [1] (setting [4]) turned out to be 5.1 µM.

As to `Fc1ccc([C@@H]2CCNC[C@H]2COc2ccc3c(c2)OCO3)cc1` [Paroxetine], the P2X4 receptor antagonism entry in test [2] is listed as “shows P2X4 receptor antagonism”. `O=c1[nH]c2c3ccccc3ccc2n(-c2ccc(O)cc2)c1=O` [Example 17, 4-(4-Hydroxyphenyl)-1,4-dihydrobenzo[f]quinoxaline-2,3-dione sodium salt]: the IC50 in test [1] (setting [3]) was 2.7 µM. Still for that read-out and setting: the figure for `Cc1nnc(-c2cccc(-n3c(=O)c(=O)[nH]c4c5ccccc5ccc43)c2)o1` [Example 15, 4-[3-(5-Methyl-[1,3,4]oxadiazol-2-yl)phenyl]-1,4-dihydrobenzo[f]quinoxaline-2,3-dione] is 6.7 µM; for `O=C(Nc1cccc(-n2c(=O)c(=O)[nH]c3c4c(ccc32)CCCC4)c1)c1ccccc1C(F)(F)F` [Example 21] it is 7.7 µM. Turning to `O=c1[nH]c2c3ccccc3ccc2n(-c2cccc(-c3nnn[nH]3)c2)c1=O` [Example 2, 4-[3-(1H-Tetrazol-5-yl)phenyl]-1,4-dihydrobenzo[f]quinoxaline-2,3-dione sodium salt], in test [1] (setting [4]), the half-maximal inhibitory concentration (IC50) came out at 0.46 µM. As for `O=c1[nH]c2c3c(ccc2n(-c2cccc(NS(=O)(=O)c4cccc5cccnc45)c2)c1=O)CCCC3` [Example 28, N-[3-(2,3-Dioxo-2,3,7,8,9,10-hexahydro-1H-benzo[f]quinoxalin-4-yl)phenyl]-8-quinolinesulfonamide hydrochloride], in test [1] (setting [3]), the IC50 was 1.9 µM. The same measure, in the same setting: as for `Nc1ccc(-n2c(=O)c(=O)[nH]c3c4ccccc4ccc32)cc1` [Example 18, 4-(4-Aminophenyl)-1,4-dihydrobenzo[f]quinoxaline-2,3-dione hydrochloride], the figure is 5.7 µM. Turning to `COc1cccc(-n2c(=O)c(=O)[nH]c3c4ccccc4ccc32)c1` [Example 3, 4-(3-Methoxyphenyl)-1,4-dihydrobenzo[f]quinoxaline-2,3-dione], in test [1] (setting [4]), the half-inhibitory concentration (IC50) is 6.6 µM. For `O=c1[nH]c2c3c(ccc2n(-c2cccc(NS(=O)(=O)c4cccc(Br)c4)c2)c1=O)CCCC3` [Example 23, 3-Bromo-N-[3-(2,3-dioxo-2,3,7,8,9,10-hexahydro-1H-benzo[f]quinoxalin-4-yl)phenyl]benzenesulfonamide], the IC50 in test [1] (setting [3]) was 1.3 µM. Same read-out and setting: the figure for `O=C(Cc1ccccc1I)Nc1cccc(-n2c(=O)c(=O)[nH]c3c4ccccc4ccc32)c1` [Example 14, 4-[3-[(2-Iodophenylacetyl)amino]phenyl)-1,4-dihydrobenzo[f]quinoxaline-2,3-dione] is 0.88 µM.
